{"source": "patent US6734301B2", "about": "“2,3,4,5-Tetrahydro-1H-[1,4]diazepino[1,7-a]indole compounds” (Pharmacia & Upjohn Company, priority 2000, dated 2004)", "note": "Structures can show the parent of a compound that is named as a salt.", "data": [{"units": {"melting point": "°C"}, "values": [{"smiles": "O=Cc1c2n(c3cc(Br)ccc13)CCNCC2", "melting point": "186 to 188"}, {"smiles": "CN1CCc2cc3ccccc3n2CC1", "melting point": "59 to 60"}, {"smiles": "CCN1CCc2cc3ccccc3n2CC1", "melting point": "44 to 46"}, {"smiles": "NCCc1c2n(c3ccccc13)CCNCC2", "melting point": "77 to 80"}, {"smiles": "COc1ccc(NC(=O)C(=O)c2c3n(c4ccccc24)CCNCC3)cc1", "melting point": "177 to 180"}, {"smiles": "COc1ccc(NC(=O)C(=O)c2c3n(c4ccccc24)CCNCC3)cc1Cl", "melting point": "221 to 223"}, {"smiles": "O=C(Nc1ccccc1)C(=O)c1c2n(c3ccccc13)CCNCC2", "melting point": "157 to 160"}, {"smiles": "O=Cc1c2n(c3ccccc13)CCNCC2", "melting point": "167 to 168"}, {"smiles": "NC(=O)C(=O)c1c2n(c3ccccc13)CCNCC2", "melting point": "214 to 215"}, {"smiles": "O=C(c1c2n(c3ccccc13)CCNCC2)C(F)(F)F", "melting point": "131 to 133"}, {"smiles": "O=C(Nc1ccc(F)cc1F)C(=O)c1c2n(c3ccccc13)CCNCC2", "melting point": "184.5 to 185.5"}, {"smiles": "N#Cc1c2n(c3ccccc13)CCNCC2", "melting point": "161 to 164"}, {"smiles": "CCCN1CCc2cc3ccccc3n2CC1", "note": "(as salt: hydrochloride)", "melting point": "257 to 259"}, {"smiles": "Brc1ccc2cc3n(c2c1)CCNCC3", "note": "(as salt: hydrochloride)", "melting point": "292 to 295"}, {"smiles": "Clc1c2n(c3ccccc13)CCNCC2", "note": "(as salt: hydrochloride)", "melting point": "> 250"}, {"smiles": "CC(C)(C)OC(=O)N1CCc2cc3ccccc3n2CC1", "note": "[Example 51, tert-butyl 1,2,4,5-tetrahydro-3H-[1,4]diazepino[1,7-a]indole-3-carboxylate]", "melting point": "129 to 132"}, {"smiles": "O=[N+]([O-])/C=C/c1c2n(c3ccccc13)CCNCC2", "note": "[Example 52, 11-[(E)-2-nitroethenyl]-2,3,4,5-tetrahydro-1H-[1,4]diazepino[1,7-a]indole]", "melting point": "225 to 226"}]}]}
